Experimental data: patent publication US20040097596A1 (priority 2000, published 2004)
Read-outs that look alike come from different tables or passages of the source.

Test system: Phytophthora infestans
Assay type: in vivo
Settings: for E, Expected % disease control / O, Observed % disease control / O-E: A76 potato; for performance in combination with A76 (indicative of synergy): in combination with A76 potato, observed vs expected disease control
[1] = 3 ppm, Jan. 25, 2001, FB 2001/3001
[2] = 3 ppm, Jan. 26, 2001, FB 2001/3001
[3] = 3 ppm, Jan. 27, 2001, FB 2001/3001
[4] = 3 ppm, Jan. 28, 2001, FB 2001/3001
[5] = 3 ppm, Jan. 29, 2001, FB 2001/3001
[6] = 3 ppm, Oct. 13, 2000, FB 2000/3024
[7] = 3 ppm, Oct. 16, 2000, FB 2000/3024
[8] = 3 ppm, Oct. 18, 2000, FB 2000/3024
[9] = 3 ppm, Oct. 20, 2000, FB 2000/3024
[10] = 10 ppm, Jan. 25, 2001, FB 2001/3001
[11] = 10 ppm, Jan. 26, 2001, FB 2001/3001
[12] = 10 ppm, Jan. 27, 2001, FB 2001/3001
[13] = 10 ppm, Jan. 28, 2001, FB 2001/3001
[14] = 10 ppm, Jan. 29, 2001, FB 2001/3001
[15] = 10 ppm, Oct. 13, 2000, FB 2000/3024
[16] = 10 ppm, Oct. 16, 2000, FB 2000/3024
[17] = 10 ppm, Oct. 18, 2000, FB 2000/3024
[18] = 10 ppm, Oct. 20, 2000, FB 2000/3024
[19] = 30 ppm, Oct. 13, 2000, FB 2000/3024
[20] = 30 ppm, Oct. 16, 2000, FB 2000/3024
[21] = 30 ppm, Oct. 18, 2000, FB 2000/3024
[22] = 30 ppm, Oct. 20, 2000, FB 2000/3024

N#Cc1c(Cl)c(Cl)c(Cl)c(C#N)c1Cl [Chlorothalonil, chlorothalonil]
E, Expected % disease control [1]: 98.3%
O, Observed % disease control [1]: 91.7%
O-E [1]: −1.6
E, Expected % disease control [2]: 96.2%
O, Observed % disease control [2]: 94.9%
O-E [2]: −1.3
E, Expected % disease control [3]: 94.5%
O, Observed % disease control [3]: 92.7%
O-E [3]: −1.7
E, Expected % disease control [4]: 83.2%
O, Observed % disease control [4]: 86.9%
O-E [4]: 3.6
E, Expected % disease control [5]: 67.2%
O, Observed % disease control [5]: 77.9%
O-E [5]: 10.7
E, Expected % disease control [6]: 73.73%
O, Observed % disease control [6]: 83.1%
O-E [6]: 9.37
E, Expected % disease control [7]: 78.12%
O, Observed % disease control [7]: 86.09%
O-E [7]: 7.97
E, Expected % disease control [8]: 56.09%
O, Observed % disease control [8]: 76.41%
O-E [8]: 20.32
E, Expected % disease control [9]: 39.95%
O, Observed % disease control [9]: 75.7%
O-E [9]: 35.75
E, Expected % disease control [10]: 97.0%
O, Observed % disease control [10]: 97.2%
O-E [10]: 0.2
E, Expected % disease control [11]: 98.2%
O, Observed % disease control [11]: 97.4%
O-E [11]: −0.8
E, Expected % disease control [12]: 97.8%
O, Observed % disease control [12]: 97.9%
O-E [12]: 0.1
E, Expected % disease control [13]: 93.8%
O, Observed % disease control [13]: 99.0%
O-E [13]: 5.2
E, Expected % disease control [14]: 90.1%
O, Observed % disease control [14]: 97.0%
O-E [14]: 6.9
E, Expected % disease control [15]: 92.49%
O, Observed % disease control [15]: 88.73%
O-E [15]: −3.76
E, Expected % disease control [16]: 94.65%
O, Observed % disease control [16]: 95.36%
O-E [16]: 0.71
E, Expected % disease control [17]: 91.33%
O, Observed % disease control [17]: 87.77%
O-E [17]: −3.56
E, Expected % disease control [18]: 84.98%
O, Observed % disease control [18]: 79.74%
O-E [18]: −5.24
performance in combination with A76 (indicative of synergy): better than expected

COCC(=O)N(c1c(C)cccc1C)C(C)C(=O)OC (centres unmarked) [Metalaxyl, metalaxyl]
E, Expected % disease control [1]: 88.8%
O, Observed % disease control [1]: 91.7%
O-E [1]: 2.8
E, Expected % disease control [2]: 92.6%
O, Observed % disease control [2]: 94.9%
O-E [2]: 2.3
E, Expected % disease control [3]: 87.2%
O, Observed % disease control [3]: 93.8%
O-E [3]: 6.5
E, Expected % disease control [4]: 57.9%
O, Observed % disease control [4]: 91.9%
O-E [4]: 34.1
E, Expected % disease control [5]: 38.1%
O, Observed % disease control [5]: 89.9%
O-E [5]: 51.8
E, Expected % disease control [6]: 79.35%
O, Observed % disease control [6]: 94.37%
O-E [6]: 15.02
E, Expected % disease control [7]: 71.31%
O, Observed % disease control [7]: 97.68%
O-E [7]: 26.37
E, Expected % disease control [8]: 58.26%
O, Observed % disease control [8]: 97.95%
O-E [8]: 39.69
E, Expected % disease control [9]: 42.01%
O, Observed % disease control [9]: 95.95%
O-E [9]: 53.94
E, Expected % disease control [10]: 98.3%
O, Observed % disease control [10]: 97.2%
O-E [10]: 3.9
E, Expected % disease control [11]: 96.2%
O, Observed % disease control [11]: 98.7%
O-E [11]: 2.5
E, Expected % disease control [12]: 94.2%
O, Observed % disease control [12]: 99.0%
O-E [12]: 4.8
E, Expected % disease control [13]: 80.4%
O, Observed % disease control [13]: 98.0%
O-E [13]: 17.6
E, Expected % disease control [14]: 55.4%
O, Observed % disease control [14]: 97.0%
O-E [14]: 41.6
E, Expected % disease control [15]: 88.74%
O, Observed % disease control [15]: 94.37%
O-E [15]: 5.63
E, Expected % disease control [16]: 87.84%
O, Observed % disease control [16]: 96.6%
O-E [16]: 8.76
E, Expected % disease control [17]: 75.07%
O, Observed % disease control [17]: 97.95%
O-E [17]: 22.88
E, Expected % disease control [18]: 48.83%
O, Observed % disease control [18]: 96.96%
O-E [18]: 48.13
E, Expected % disease control [19]: 96.25%
O, Observed % disease control [19]: 100%
O-E [19]: 3.75
E, Expected % disease control [20]: 97.08%
O, Observed % disease control [20]: 100%
O-E [20]: 2.92
E, Expected % disease control [21]: 94.58%
O, Observed % disease control [21]: 97.95%
O-E [21]: 3.37
E, Expected % disease control [22]: 89.77%
O, Observed % disease control [22]: 97.97%
O-E [22]: 8.2
performance in combination with A76 (indicative of synergy): better than expected
